Source: patent US20160303141A1, “CORTEXOLONE 17alpha-PROPIONATE FOR USE IN THE TREATMENT OF SKIN WOUNDS AND/OR ATROPHIC SKIN DISORDERS” (CASSIOPEA S.P.A., priority 2013, published 2016)

Columns and labels:
[1] = system: Adult human dermal fibroblasts (HDF); assay: In-vitro effect on extra-cellular protein synthesis (Bradford); format: cell-based; conditions: for Protein synthesis (Δ% vs. control): Table 2 summary; for effect on extracellular protein synthesis (in words): same test and conditions as Example 3; for Δ % vs. control (protein concentration) / Protein concentration Treated: 72 h; for Protein concentration Treated: supernatant
Procedure: Adult human dermal fibroblasts (HDF) were appropriately grown, and were employed between 2nd and 6th passage. The fibroblasts, plated in a 24-wells plate at the density of 12×10^4 cells/mL (1 mL/well), were incubated for 72 hours with rhEGF (100 nM) as positive control, or with cortexolone 17α-propionate at concentration of 5 μM, 25 μM, 50 μM. After 72 h of incubation the supernatant were mixed with 1 mL of Bradford reagent and incubated for 45 minutes at room temperature. Each sample was then read in a spectrophotometer at 595 nm.

[2] = system: Adult human dermal fibroblasts (HDF); assay: In-vitro effect on synthesis of type I procollagen (PIP ELISA); format: cell-based; conditions: for Procollagen I Synthesis (Δ% vs. control): Table 2 summary; for effect on synthesis of type I procollagen (in words): same test and conditions as Example 4; for Δ % vs. control (PIP) / PIP concentration: 48 h; for PIP concentration: supernatant
Procedure: Adult human dermal fibroblasts (HDF) were appropriately grown, and were employed between 2nd and 4th passage. […] After the incubation the supernatant were collected and dosed for the terminal peptide of type I procollagen (PIP) with ELISA kit. The measurement of PIP concentration in the culture medium is representative for the production of collagen type I. The results of type I procollagen concentration (PIP) are reported in the Table 6 below: […]

[3] = system: Adult human dermal fibroblasts (HDF); assay: In-vitro fibroblast proliferation (BrdU incorporation); format: cell-based; conditions: for Fibroblast proliferation (Δ% vs. control): Table 2 summary; for proliferative stimulating effect (in words): same test and conditions as Example 1; for Δ % vs. control (proliferation) / Absorbance ± SD Treated: 72 h; for Absorbance ± SD Treated: BrdU, 450 nm
Procedure: Fibroblast proliferation: Adult human dermal fibroblasts (HDF) were appropriately grown, and were employed between 2nd and 6th passage. […] Twenty-four hours before end of incubation, the cells were labelled with Bromo deoxyuridine (BrdU, 10 μL/well) and its incorporation into DNA was evaluated measuring the absorbance of the samples in an ELISA reader at 450 nm. The proliferation rate of the fibroblasts was evaluated on the increase of the absorbance of the samples.

[4] = system: testosterone propionate (TP) response; assay: Local antiandrogenic activity, flank organ test in hamster; format: in vivo; conditions: for Percent inhibition of testosterone propionate (TP) response: topical on flank organ; for Mean inhibition (%): mean over daily doses 100, 200, 400 μg + 4 μg TP
Source text: The numbers indicate the percent inhibition of the stimulating response induced by the application of testosterone propionate (TP): the higher the number, the higher the inhibition of the androgenic response to testosterone propionate (TP).

[5] = system: cutaneous wounds; assay: In vivo wound healing activity, repTOP mitoIRE mouse model; conditions: 250 mg/mouse topical
Procedure: The wound healing activity of the cortexolone 17α-propionate on cutaneous wounds was evaluated in an in vivo test foreseeing the use of repTOP™ mitoIRE mouse model. RepTOP™ mitoIRE mice from TOP® S.r.l. are engineered for the ubiquitous and proliferation-regulated expression of luciferase in proliferating tissues by embedding the transgene containing the minimal promoter of Cyclin B2d driving the firefly luciferase gene within HS4 insulator sequences.
Cortexolone 17α-propionate was dissolved in 0.4% (v/v) tween 80 and 0.5% (w/v) carboxymethylcellulose in normal saline.
The test was carried out comparing the wound healing activity of cortexolone 17α-propionate at two different dosages (50 mg/mouse and 250 mg/mouse) versus the vehicle (i.e. 0.4% (v/v) tween 80 and 0.5% (w/v) carboxymethylcellulose in normal saline) and versus a comparator, i.e. Cicatrene® cream (Johnson&Johnson®), a drug product used in wound management and wound healing.
Animal treatments. The repTOP™ mitoIRE mice were shaved by VEET® depilatory cream a day before the treatment. A round full-thickness wound of 0.4 cm^2 area was made through the dorsal skin and the panniculus carnosus muscle of repTOP™ mitoIRE by using skin biopsy devices (HS biopsy punch).
In vivo test. In order to establish the proliferative stimulating activity of cortexolone 17α-propionate, the vehicle (200 μl/mouse), cortexolone 17α-propionate (50 mg/mouse), cortexolone 17α-propionate (250 mg/mouse) and Cicatrene® (200 mg/mouse) were spread topically on the wound of repTOP™ mitoIRE mice (4 mice per group of treatment), immediately after the generation of the round punch. Photon-emission was measured in wound area at the following times: time 0 and 1, 2, 3 and 6 days after the treatment. A representation of the area of wound selected for the measurements is depicted in FIG. 1.
In vivo imaging. […] Photon emission in wound area was measured using the Living Image Software (Caliper™, a Perkin Elmer™ company) and expressed as photon/second/cm^2/steradian (p/s/cm^2/sr). The measurement of wound areas was expressed as cm^2.

[6] = system: Adult human dermal fibroblasts (HDF); assay: In-vitro fibroblast migration (image density); format: cell-based; conditions: for Image density 6 h: 6 h after insert removal; for Image density 24 h: 24 h after insert removal; for Image density t0: immediately after insert removal; for Δ (%) vs. vehicle (migration): increase t0-24 h
Procedure: Fibroblast migration: Adult human dermal fibroblasts (HDF) were appropriately grown, and were employed between 2nd and 6th passage. […] After incubation the culture-insert was removed and the cells were maintained in culture for further 24 hours. Immediately after insert removal, and at interval of 6 and 24 h, the plates were photographed by Digital Microscope Eyepiece. The entity of cell migration was measured using image analyzing software Image J, and was expressed as image density.

[7] = daily dose 100 μg test compound + 4 μg TP
[8] = daily dose 200 μg test compound + 4 μg TP
[9] = daily dose 400 μg test compound + 4 μg TP

CCCC(=O)OCC(=O)[C@@]1(OC(=O)CCC)CC[C@H]2[C@@H]3CCC4=CC(=O)CC[C@]4(C)[C@H]3CC[C@@]21C [Cortexolone 17α,21-dibutyrate, cortexolone 17α,21-dibutyrate]
Protein synthesis (Δ% vs. control) ([1]; 50 μM): 0.6%
effect on extracellular protein synthesis (in words) [1]: did not show any effect in increasing the extracellular protein synthesis
Procollagen I Synthesis (Δ% vs. control) ([2]; 50 μM): −2.8%
effect on synthesis of type I procollagen (in words) [2]: did not show any effect in increasing the synthesis of type I procollagen
Fibroblast proliferation (Δ% vs. control) ([3]; 50 μM): 9.6%
proliferative stimulating effect (in words) [3]: did not show any proliferative stimulating effect
Percent inhibition of testosterone propionate (TP) response [4, 7]: 84%
Percent inhibition of testosterone propionate (TP) response [4, 8]: 89%
Percent inhibition of testosterone propionate (TP) response [4, 9]: 97%
Mean inhibition (%) [4]: 90%

O=C1O[C@H]([C@@H](O)CO)C(O)=C1O [Vit. C, L-Ascorbic acid]
Δ % vs. control (PIP) ([2]; 0.2 mM): 260.87%
PIP concentration ([2]; 0.2 mM): 3735.27 ± 515.52 ng/mL

CCC(=O)O[C@]1(C(=O)CO)CC[C@H]2[C@@H]3CCC4=CC(=O)CC[C@]4(C)[C@H]3CC[C@@]21C [Cortexolone 17α-propionate, cortexolone 17α-propionate]
Δ % vs. control (protein concentration) ([1]; 5 μM): 0%
Protein concentration Treated ([1]; 5 μM): 0.5 ± 0.056 mg/mL
Δ % vs. control (protein concentration) ([1]; 25 μM): 12.18%
Protein concentration Treated ([1]; 25 μM): 0.884 ± 0.028 mg/mL
Δ % vs. control (protein concentration) ([1]; 50 μM): 27.41%
Protein concentration Treated ([1]; 50 μM): 0.846 ± 0.087 mg/mL
Protein synthesis (Δ% vs. control) ([1]; 50 μM): 27.4%
Δ % vs. control (PIP) ([2]; 10 μM): −8.27%
PIP concentration ([2]; 10 μM): 949.50 ± 149.81 ng/mL
Δ % vs. control (PIP) ([2]; 50 μM): 199.59%
PIP concentration ([2]; 50 μM): 3100.98 ± 152.59 ng/mL
Procollagen I Synthesis (Δ% vs. control) ([2]; 50 μM): 199.6%
Δ % vs. control (proliferation) ([3]; 1 μM): −0.95%
Absorbance ± SD Treated ([3]; 1 μM): 2.06 ± 0.15
Δ % vs. control (proliferation) ([3]; 5 μM): 6.71%
Absorbance ± SD Treated ([3]; 5 μM): 2.05 ± 0.24
Δ % vs. control (proliferation) ([3]; 25 μM): 7.00%
Absorbance ± SD Treated ([3]; 25 μM): 2.09 ± 0.19
Δ % vs. control (proliferation) ([3]; 50 μM): 30.98%
Absorbance ± SD Treated ([3]; 50 μM): 2.48 ± 0.23
Fibroblast proliferation (Δ% vs. control) ([3]; 50 μM): 31.0%
time of maximum increase of proliferative cells after administration [5]: 3 days
mean reduction in wound area ([5]; after 3 days from administration): 26%
increase of photon-emission from wounds with respect to time 0 ([5]; time 3 days): 143%
Increase from t0 − 24 h (image density) ([6]; 10 μM): 35.2
Image density 6 h ([6]; 10 μM): 24.0 ± 2.4
Image density 24 h ([6]; 10 μM): 54.5 ± 2.5
Image density t0 ([6]; 10 μM): 19.3 ± 0.8
Δ (%) vs. vehicle (migration) ([6]; 10 μM): 30.3%
Increase from t0 − 24 h (image density) ([6]; 50 μM): 44.0
Image density 6 h ([6]; 50 μM): 25.1 ± 1.2
Image density 24 h ([6]; 50 μM): 64.1 ± 5.6
Image density t0 ([6]; 50 μM): 20.1 ± 2.0
Δ (%) vs. vehicle (migration) ([6]; 50 μM): 62.9%
Percent inhibition of testosterone propionate (TP) response [4, 7]: 62%
Percent inhibition of testosterone propionate (TP) response [4, 8]: 69%
Percent inhibition of testosterone propionate (TP) response [4, 9]: 86%
Mean inhibition (%) [4]: 72%

C[C@]12CCC(=O)C=C1CC[C@@H]1[C@@H]2[C@@H](O)C[C@@]2(C)[C@H]1CC[C@]2(O)C(=O)CO [Cortisol, cortisol, reference compound]
Δ % vs. control (PIP) ([2]; 50 μM): −74.94%
PIP concentration ([2]; 50 μM): 259.36 ng/mL
Δ % vs. control (proliferation) ([3]; 50 μM): −56.84%
Increase from t0 − 24 h (image density) ([6]; 50 μM): 34.4
Image density 6 h ([6]; 50 μM): 22.9 ± 2.7
Image density 24 h ([6]; 50 μM): 56.6 ± 4.4
Image density t0 ([6]; 50 μM): 22.2 ± 3.2
Δ (%) vs. vehicle (migration) ([6]; 50 μM): 27.4%

rhEGF: recombinant human Epidermal Growth Factor, known fibroblast proliferation promoter, positive control
Δ % vs. control (protein concentration) ([1]; 100 nM): 49.54%
Protein concentration Treated ([1]; 100 nM): 0.978 ± 0.074 mg/mL
Δ % vs. control (proliferation) ([3]; 100 nM): 49.49%
Absorbance ± SD Treated ([3]; 100 nM): 2.72 ± 0.22
Increase from t0 − 24 h (image density) ([6]; 100 nM): 43.6
Image density 6 h ([6]; 100 nM): 21.6 ± 1.0
Image density 24 h ([6]; 100 nM): 65.7 ± 4.2
Image density t0 ([6]; 100 nM): 22.1 ± 2.9
Δ (%) vs. vehicle (migration) ([6]; 100 nM): 61.5%

CCCCC(=O)O[C@]1(C(=O)CO)CC[C@H]2[C@@H]3CCC4=CC(=O)CC[C@]4(C)[C@H]3CC[C@@]21C [Cortexolone 17α-valerate, cortexolone 17α-valerate]
Protein synthesis (Δ% vs. control) ([1]; 50 μM): −3.8%
effect on extracellular protein synthesis (in words) [1]: did not show any effect in increasing the extracellular protein synthesis
Procollagen I Synthesis (Δ% vs. control) ([2]; 50 μM): −14.6%
effect on synthesis of type I procollagen (in words) [2]: did not show any effect in increasing the synthesis of type I procollagen
Fibroblast proliferation (Δ% vs. control) ([3]; 50 μM): −33.8%
proliferative stimulating effect (in words) [3]: did not show any proliferative stimulating effect
Percent inhibition of testosterone propionate (TP) response [4, 7]: 66%
Percent inhibition of testosterone propionate (TP) response [4, 8]: 65%
Percent inhibition of testosterone propionate (TP) response [4, 9]: 73%
Mean inhibition (%) [4]: 68%
